Values of other authors, collected in publication PMC6832141, “Synthesis and Cyclooxygenase Inhibition of Sulfonamide-Substituted (Dihydro)Pyrrolo[3,2,1-hi]indoles and Their Potential Prodrugs” (Molecules, 2019).
Read-outs that look alike come from different tables or passages of the source.

Columns and labels:
[1] = rat plasma, parecoxib leading to valdecoxib, cited from earlier work
hCOX-2 = details: read-out: IC50 hCOX-2; cited from earlier work
[2] = design: method as in doi:10.1002/slct.201601618, PMID 12064545; details: reference substances for the HPLC logD method; cited from earlier work

Row | SMILES | elimination half-life T1/2 ([1]; ref 19) [min] | elimination half-life T1/2 ([1]; ref 23) [min] | IC50 (hCOX-2) [µM] | logD7.4 of HPLC references [2]
1 | CCC(=O)NS(=O)(=O)c1ccc(-c2c(-c3ccccc3)noc2C)cc1 [parecoxib] | 8.1 | 41.4 | 20 | 
2 | C[C@]12CCC(=O)C=C1CC[C@@H]1[C@@H]2[C@@H](O)C[C@@]2(C)[C@H]1CC[C@]2(O)C(=O)CO [Hydrocortisone] |  |  |  | 1.65
